Drawing on patent US20260250320A1, “LIPIDATED PEPTIDE INHIBITORS OF INTERLEUKIN-23 RECEPTOR” (Janssen Pharmaceutica NV, priority 2023, published 2026), this text covers IC50 for seven compounds.

In general, IC50 refers to the concentration at which inhibition is half-maximal. Read a high IC50 as lower potency.

In one experiment the target is T1, IL-23R (Homo sapiens, UniProt Q5VWK5).
T1 construct: HEK293 cells containing IL-23R, IL-12Rβ1 and a firefly luciferase reporter gene driven by a STAT-inducible promoter (Promega); host or cells: HEK293
T1 sequence (Q5VWK5 24-629): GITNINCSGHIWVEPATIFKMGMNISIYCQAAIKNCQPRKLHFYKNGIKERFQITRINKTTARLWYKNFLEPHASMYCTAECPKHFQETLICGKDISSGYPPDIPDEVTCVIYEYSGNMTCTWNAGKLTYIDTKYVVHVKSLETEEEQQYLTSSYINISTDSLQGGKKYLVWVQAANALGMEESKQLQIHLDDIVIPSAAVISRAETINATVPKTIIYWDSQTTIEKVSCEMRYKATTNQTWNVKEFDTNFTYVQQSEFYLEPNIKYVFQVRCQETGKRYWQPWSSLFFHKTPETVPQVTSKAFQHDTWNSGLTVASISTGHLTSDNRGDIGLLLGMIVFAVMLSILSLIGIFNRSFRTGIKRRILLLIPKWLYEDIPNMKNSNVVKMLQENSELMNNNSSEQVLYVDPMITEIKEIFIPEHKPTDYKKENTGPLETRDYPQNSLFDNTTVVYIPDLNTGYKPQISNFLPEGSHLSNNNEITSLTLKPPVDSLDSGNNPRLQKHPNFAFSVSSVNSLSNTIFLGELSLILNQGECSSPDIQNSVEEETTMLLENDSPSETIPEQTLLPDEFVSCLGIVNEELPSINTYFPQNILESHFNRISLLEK
The experiment can be described thus: IL23R Reporter Assay. It is filed as cell-based. The settings on record: HEK293 cells containing IL-23R, IL-12Rβ1 and STAT-inducible firefly luciferase reporter; 10 ng/mL IL-23 (EC90); 5 h. In outline:
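HEK293 cells carrying IL-23R, IL-12Rβ1 and a STAT-driven firefly luciferase reporter (4000 cells/well) received compound, then 10 ng/mL IL-23 solution (EC90), and were incubated for 5 h at 37° C. BioGlo luminescence was normalised to IL-23 alone (0%) and 30 μM control inhibitor (100%). IC50 came from a 4-parameter Hill fit.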
In general terms: In a reporter assay the amount or activity of a reporter protein is the signal.

Experiment [1] deals with IL-23-stimulated phosphorylated STAT3 in peripheral blood mononuclear cells (PBMCs). Put plainly: PBMC pSTAT3 Assay. It is filed as cell-based. The following applies: PBMCs from healthy donors; 30 min preincubation with peptide; IL-23 5 ng/mL for 30 min; phospho-STAT3 by MSD. Put shortly:
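Healthy-donor PBMCs expanded 4 days on anti-CD3 with 100 ng/mL IL-1β, starved ~4 h in RPMI-0.1% BSA, preincubated 30 min with peptide, then stimulated 30 min at 37 °C with 5 ng/mL IL-23. Lysate pSTAT3 measured by MSD phospho-STAT panel; IC50 derived.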

Structures are written as SMILES. *1 amine or outer side, *2 acyl side, *3 side chain or, on linkers, in order; H or OH if unused. Where a SMILES comes first, the peptide text is derived from it. Bridges are numbered along the chain shown (N, C = ends). Side-chain parts run from the residue outwards. [ ]: non-standard residue; d: D form. The star is where a group is joined. Me3N+(CH2)2O(CH2)2O(CH2)2CO = C[N+](C)(C)CCOCCOCCC(=O)*; X24 = O=C(O)CCCCCCCCCCCCCCCCCN[C@@H](CCC(=O)*)C(=O)O; NH(CH2CH2O)2CH2CH2NMe3+ = C[N+](C)(C)CCOCCOCCN*; Trp(7-Me) = Cc1cccc2c(C[C@H](N)C(=O)O)c[nH]c12; Hexanoyl(6-NMe3+) = C[N+](C)(C)CCCCCC(=O)*; C18 diacid = O=C(O)CCCCCCCCCCCCCCCCC(=O)*; γGlu = O=C(O)[C@H](CCC(=O)[*:2])N[*:1]; 2Nal = N[C@@H](Cc1ccc2ccccc2c1)C(=O)O; AEF = NCCOc1ccc(C[C@H](N)C(=O)O)cc1; 2Pal = N[C@@H](Cc1ccccn1)C(=O)O; 3Pal = N[C@@H](Cc1cccnc1)C(=O)O; Lys(Me) = CNCCCC[C@H](N)C(=O)O; Pen = CC(C)(S)[C@H](N)C(=O)O; Thp = NC1(C(=O)O)CCOCC1; X1 = C[N+](C)(C)CCCCC*; AEEA = NCCOCCOCC(=O)O; Sar = CNCC(=O)O

For `CC(=O)NCCCC[C@@H]1NC(=O)[C@H](Cc2c[nH]c3c(C)cccc23)NC(=O)[C@H]([C@@H](C)O)NC(=O)[C@H](CC(N)=O)NC(=O)[C@@H](NC(=O)[C@@H](CCCNC(=N)N)NC(=O)COCCOCCNC(=O)COCCOCCNC(=O)CC[C@H](NC(=O)CCCCCCCCCCCCCCCCC(=O)O)C(=O)O)C(C)(C)SSC(C)(C)[C@@H](C(=O)N[C@@H](Cc2ccc(OCCN)cc2)C(=O)N[C@@H](Cc2ccc3ccccc3c2)C(=O)NC2(C(=O)N[C@@H](CCC(=O)O)C(=O)N[C@@H](CC(N)=O)C(=O)N[C@@H](Cc3cccnc3)C(=O)N(C)CC(=O)NCCOCCOCC[N+](C)(C)C)CCOCC2)NC1=O` [compound 67, HOC18gEPEG2PEG2CO-r-Pen(3)-N-T-7MeW-K(Ac)-Pen(3)-AEF-2Nal-THP-E-N-3Pya-Sar-CONH(PEG3a)] ({C18 diacid-γGlu-AEEA-AEEA}-[dR][Pen]NT[Trp(7-Me)]K(Ac)[Pen][AEF][2Nal][Thp]EN[3Pal][Sar]-{NH(CH2CH2O)2CH2CH2NMe3+}; disulfide 2-7), the concentration for half-maximal inhibition (IC50) against IL-23R was in the range of 50 to 500 nM; in experiment [1] it was 0.5 to 5 nM.
In the case of `CC(=O)N[C@H](CCCNC(=N)N)C(=O)N[C@@H]1C(=O)N[C@@H](CC(N)=O)C(=O)N[C@@H]([C@@H](C)O)C(=O)N[C@@H](Cc2c[nH]c3c(C)cccc23)C(=O)N[C@@H](CCCCN(C)C(=O)CCOCCOCC[N+](C)(C)C)C(=O)N[C@H](C(=O)N[C@@H](Cc2ccc(OCCN)cc2)C(=O)N[C@@H](Cc2ccc3ccccc3c2)C(=O)NC2(C(=O)N[C@@H](CCC(=O)O)C(=O)N[C@@H](CC(N)=O)C(=O)N[C@@H](Cc3cccnc3)C(=O)N(C)CC(=O)N[C@@H](CCCCNC(=O)COCCOCCNC(=O)COCCOCCNC(=O)CC[C@H](NC(=O)CCCCCCCCCCCCCCCCC(=O)O)C(=O)O)C(N)=O)CCOCC2)C(C)(C)SSC1(C)C` [compound 70, MeCO-r-Pen(3)-N-T-7MeW-K(NMecPEG3a)-Pen(3)-AEF-2Nal-THP-E-N-3Pya-Sar-K(PEG2PEG2C18OH)-CONH2] (Ac-[dR][Pen]NT[Trp(7-Me)][Lys(Me)](Me3N+(CH2)2O(CH2)2O(CH2)2CO)[Pen][AEF][2Nal][Thp]EN[3Pal][Sar]K([AEEA-AEEA-γGlu-C18 diacid])-NH2; disulfide 2-7), the half-inhibitory concentration (IC50) is below 50 nM against IL-23R and below 0.5 nM in experiment [1].
For `Cc1cccc2c(C[C@@H]3NC(=O)[C@H]([C@@H](C)O)NC(=O)[C@H](CC(N)=O)NC(=O)[C@@H](NC(=O)[C@@H](CCCNC(=N)N)NC(=O)CCCCC[N+](C)(C)C)C(C)(C)SSC(C)(C)[C@@H](C(=O)N[C@@H](Cc4ccc(OCCN)cc4)C(=O)N[C@@H](Cc4ccc5ccccc5c4)C(=O)NC4(C(=O)N[C@@H](CCC(=O)O)C(=O)N[C@@H](CC(N)=O)C(=O)N[C@@H](Cc5cccnc5)C(=O)N(C)CC(N)=O)CCOCC4)NC(=O)[C@H](CCCCNC(=O)COCCOCCNC(=O)COCCOCCNC(=O)CC[C@H](NCCCCCCCCCCCCCCCCCC(=O)O)C(=O)O)NC3=O)c[nH]c12` [compound 71, 5cpaCO-r-Pen(3)-N-T-7MeW-K(PEG2PEG2C18OH)-Pen(3)-AEF-2Nal-THP-E-N-3Pya-Sar-CONH2] ({Hexanoyl(6-NMe3+)}-[dR][Pen]NT[Trp(7-Me)]K([AEEA-AEEA-X24])[Pen][AEF][2Nal][Thp]EN[3Pal][Sar]-NH2; disulfide 2-7), in that order: 50 to 500 nM and below 0.5 nM.
On the same counts, the results for `Cc1cccc2c(C[C@@H]3NC(=O)[C@H]([C@@H](C)O)NC(=O)[C@H](CC(N)=O)NC(=O)[C@@H](NC(=O)[C@@H](CCCNC(=N)N)NC(=O)CCOCCOCC[N+](C)(C)C)C(C)(C)SSC(C)(C)[C@@H](C(=O)N[C@@H](Cc4ccc(OCCN)cc4)C(=O)N[C@@H](Cc4ccc5ccccc5c4)C(=O)NC4(C(=O)N[C@@H](CCC(=O)O)C(=O)N[C@@H](CC(N)=O)C(=O)N[C@@H](Cc5cccnc5)C(=O)N(C)CC(N)=O)CCOCC4)NC(=O)[C@H](CCCCNC(=O)COCCOCCNC(=O)COCCOCCNC(=O)CC[C@H](NC(=O)CCCCCCCCCCCCCCCCC(=O)O)C(=O)O)NC3=O)c[nH]c12` [compound 72, cPEG3aCO-r-Pen(3)-N-T-7MeW-K(PEG2PEG2C18OH)-Pen(3)-AEF-2Nal-THP-E-N-3Pya-Sar-CONH2] ({Me3N+(CH2)2O(CH2)2O(CH2)2CO}-[dR][Pen]NT[Trp(7-Me)]K([AEEA-AEEA-γGlu-C18 diacid])[Pen][AEF][2Nal][Thp]EN[3Pal][Sar]-NH2; disulfide 2-7) are 50 to 500 nM and below 0.5 nM.
For `CC(=O)NCCCC[C@@H]1NC(=O)[C@H](Cc2c[nH]c3c(C)cccc23)NC(=O)[C@H]([C@@H](C)O)NC(=O)[C@H](CCCCNC(=O)COCCOCCNC(=O)COCCOCCNC(=O)CC[C@H](NC(=O)CCCCCCCCCCCCCCCCC(=O)O)C(=O)O)NC(=O)[C@@H](NC(=O)[C@@H](CCCNC(=N)N)NC(=O)CCCCC[N+](C)(C)C)C(C)(C)SSC(C)(C)[C@@H](C(=O)N[C@@H](Cc2ccc(OCCN)cc2)C(=O)N[C@@H](Cc2ccc3ccccc3c2)C(=O)NC2(C(=O)N[C@@H](CCC(=O)O)C(=O)N[C@@H](CC(N)=O)C(=O)N[C@@H](Cc3cccnc3)C(=O)N(C)CC(N)=O)CCOCC2)NC1=O` [compound 73, 5cpaCO-r-Pen(3)-K(PEG2PEG2gEC18OH)-T-7MeW-K(Ac)-Pen(3)-AEF-2Nal-THP-E-N-3Pya-Sar-CONH2] ({Hexanoyl(6-NMe3+)}-[dR][Pen]K([AEEA-AEEA-γGlu-C18 diacid])T[Trp(7-Me)]K(Ac)[Pen][AEF][2Nal][Thp]EN[3Pal][Sar]-NH2; disulfide 2-7), in that order: 50 to 500 nM and below 0.5 nM.
Consider `CC(=O)NCCCC[C@@H]1NC(=O)[C@H](Cc2c[nH]c3c(C)cccc23)NC(=O)[C@H]([C@@H](C)O)NC(=O)[C@H](CCCCNC(=O)COCCOCCNC(=O)COCCOCCNC(=O)CC[C@H](NC(=O)CCCCCCCCCCCCCCCCC(=O)O)C(=O)O)NC(=O)[C@@H](NC(=O)[C@@H](CCCNC(=N)N)NC(C)=O)C(C)(C)SSC(C)(C)[C@@H](C(=O)N[C@@H](Cc2ccc(OCCN)cc2)C(=O)N[C@@H](Cc2ccc3ccccc3c2)C(=O)NC2(C(=O)N[C@@H](CCCCN(C)C(=O)CCOCCOCC[N+](C)(C)C)C(=O)N[C@@H](CC(N)=O)C(=O)N[C@@H](Cc3ccccn3)C(=O)N(C)CC(N)=O)CCOCC2)NC1=O` [compound 74, MeCO-r-Pen(3)-K(PEG2PEG2gEC18OH)-T-7MeW-K(Ac)-Pen(3)-AEF-2Nal-THP-K(NMecPEG3a)-N-3Pya-Sar-CONH2] (Ac-[dR][Pen]K([AEEA-AEEA-γGlu-C18 diacid])T[Trp(7-Me)]K(Ac)[Pen][AEF][2Nal][Thp][Lys(Me)](Me3N+(CH2)2O(CH2)2O(CH2)2CO)N[2Pal][Sar]-NH2; disulfide 2-7), for which the values for the IC50 (against IL-23R; in experiment [1]) were below 50 nM and below 0.5 nM, respectively.
For `CC(=O)NCCCC[C@@H]1NC(=O)[C@H](Cc2c[nH]c3c(C)cccc23)NC(=O)[C@H]([C@@H](C)O)NC(=O)[C@H](CCCCNC(=O)COCCOCCNC(=O)COCCOCCNC(=O)CC[C@H](NC(=O)CCCCCCCCCCCCCCCCC(=O)O)C(=O)O)NC(=O)[C@@H](NC(=O)[C@@H](CCCNC(=N)N)NC(C)=O)C(C)(C)SSC(C)(C)[C@@H](C(=O)N[C@@H](Cc2ccc(OCCCCC[N+](C)(C)C)cc2)C(=O)N[C@@H](Cc2ccc3ccccc3c2)C(=O)NC2(C(=O)N[C@@H](CCC(=O)O)C(=O)N[C@@H](CC(N)=O)C(=O)N[C@@H](Cc3cccnc3)C(=O)N(C)CC(N)=O)CCOCC2)NC1=O` [compound 75, MeCO-r-Pen(3)-K(PEG2PEG2gEC18OH)-T-7MeW-K(Ac)-Pen(3)-TMAPF-2Nal-THP-E-N-3Pya-Sar-CONH2] (Ac-[dR][Pen]K([AEEA-AEEA-γGlu-C18 diacid])T[Trp(7-Me)]K(Ac)[Pen]Y(X1)[2Nal][Thp]EN[3Pal][Sar]-NH2; disulfide 2-7), in that order: below 50 nM and below 0.5 nM.
